The text below walks through data of PMC2014795 (PLoS Pathogens, 2007).

In the assay the target is T1, HLA-DR1 (DRB1*0101) (Homo sapiens, UniProt P01903+P01911, A100R/D57E/F55L/F60I/F76Y/I96L/L162R/M171V/P40L/Q125E/R42F/V115G/Y59C).
T1 construct: the extracellular portion of HLA-DR1 was produced by expression of isolated subunits in Escherichia coli inclusion bodies; made in house
In words: biochemical. In kind it is binding.

`CC(C)C[C@H](NC(=O)[C@H](Cc1ccc(O)cc1)NC(=O)[C@H](CCCNC(=N)N)NC(=O)CNC(=O)[C@H](CCC(=O)O)NC(=O)[C@H](CCCCN)NC(=O)[C@@H](NC(=O)[C@@H](N)CC(N)=O)[C@@H](C)O)C(=O)N[C@H](C(=O)N[C@@H](CC(C)C)C(=O)N[C@@H](CCCCN)C(=O)N[C@@H](C)C(=O)N[C@H](C(=O)N[C@@H](CCCCN)C(=O)N[C@H](C(=O)N[C@@H](CS)C(=O)N[C@@H](CC(=O)O)C(=O)N[C@H](C(=O)N[C@@H](CCCNC(=N)N)C(=O)N[C@H](C(=O)N[C@H](C(=O)O)C(C)C)[C@@H](C)O)C(C)C)C(C)C)C(C)C)C(C)C` [Peptide 301]: inhibition was half-maximal at 190 ± 16 nM (IC50).
In the case of `CC[C@H](C)[C@H](NC(=O)[C@@H](NC(=O)[C@@H]1CCCN1C(=O)[C@H](CCC(=O)O)NC(=O)[C@H](CO)NC(=O)[C@H](CO)NC(=O)[C@H](CCSC)NC(=O)[C@H](Cc1ccc(O)cc1)NC(=O)[C@H](CCCNC(=N)N)NC(=O)[C@H](Cc1ccccc1)NC(=O)[C@@H](NC(=O)[C@@H](NC(=O)[C@H](CC(N)=O)NC(=O)[C@H](C)NC(=O)[C@@H](NC(=O)[C@@H](N)CCC(N)=O)[C@@H](C)O)C(C)C)C(C)C)[C@@H](C)CC)C(=O)N[C@@H](Cc1ccccc1)C(=O)NCC(=O)N[C@@H](CCC(=O)O)C(=O)N[C@@H](CO)C(=O)N[C@@H](CO)C(=O)O` [Peptide 302], the IC50 (as a rule, the concentration at which inhibition is half-maximal) was found to be 37 ± 10 nM.
Then `CC[C@H](C)[C@H](NC(=O)[C@H](C)NC(=O)[C@H](CCCNC(=N)N)NC(=O)[C@@H](NC(=O)[C@@H](NC(=O)[C@@H](NC(=O)[C@H](Cc1ccccc1)NC(=O)[C@H](Cc1c[nH]c2ccccc12)NC(=O)[C@H](Cc1ccccc1)NC(=O)[C@H](CO)NC(=O)[C@H](CC(N)=O)NC(=O)[C@@H]1CCCN1C(=O)[C@@H](N)CCCNC(=N)N)C(C)C)C(C)C)C(C)C)C(=O)N[C@@H](C)C(=O)N[C@@H](CO)C(=O)N[C@@H](CCSC)C(=O)N[C@H](C(=O)N[C@@H](CCSC)C(=O)N[C@@H](Cc1ccc(O)cc1)C(=O)N[C@@H](CC(C)C)C(=O)N[C@H](C(=O)O)C(C)C)[C@@H](C)CC` [Peptide 304], with 4000 nM; and `CC[C@H](C)[C@H](N)C(=O)N1CCC[C@H]1C(=O)N[C@@H](CC(C)C)C(=O)N[C@@H](CO)C(=O)N[C@@H](CCC(=O)O)C(=O)N[C@@H](CCSC)C(=O)N[C@H](C(=O)N[C@H](C(=O)N[C@@H](CCCCN)C(=O)N[C@@H](CC(C)C)C(=O)N[C@H](C(=O)N[C@@H](C)C(=O)N[C@H](C(=O)N[C@@H](CS)C(=O)N[C@@H](CCSC)C(=O)N[C@@H](CCCCN)C(=O)N[C@@H](CS)C(=O)N[C@@H](Cc1ccccc1)C(=O)N[C@@H](CCCCN)C(=O)N[C@@H](CCC(=O)O)C(=O)N[C@@H](C)C(=O)O)C(C)C)[C@@H](C)O)C(C)C)C(C)C` [Peptide 305], with 29 ± 10 nM.
Then `CC[C@H](C)[C@H](N)C(=O)N[C@@H](CC(C)C)C(=O)N[C@@H](CCCCN)C(=O)N[C@@H](CO)C(=O)N[C@@H](CC(C)C)C(=O)NCC(=O)N[C@@H](Cc1ccccc1)C(=O)N[C@@H](CCCCN)C(=O)N[C@H](C(=O)N[C@@H](CC(C)C)C(=O)N[C@@H](CC(=O)O)C(=O)NCC(=O)N[C@@H](CO)C(=O)N1CCC[C@H]1C(=O)N[C@H](C(=O)N[C@@H](CO)C(=O)N[C@@H](CC(C)C)C(=O)N[C@@H](CCCNC(=N)N)C(=O)N[C@@H](Cc1ccc(O)cc1)C(=O)NCC(=O)N[C@@H](CO)C(=O)O)[C@@H](C)CC)C(C)C` [Peptide 306], with 5 ± 1 nM; and `CC[C@H](C)[C@H](NC(=O)CNC(=O)[C@@H](NC(=O)[C@H](CC(C)C)NC(=O)[C@H](CCCCN)NC(=O)[C@H](CC(C)C)NC(=O)[C@H](Cc1ccc(O)cc1)NC(=O)[C@H](CCC(=O)O)NC(=O)[C@H](CCCNC(=N)N)NC(=O)[C@@H](NC(=O)[C@H](CO)NC(=O)[C@@H](NC(=O)[C@@H](N)CC(N)=O)[C@@H](C)O)[C@@H](C)O)[C@@H](C)CC)C(=O)N[C@H](C(=O)N[C@@H](C)C(=O)N[C@H](C(=O)N[C@@H](CCSC)C(=O)N[C@@H](Cc1ccccc1)C(=O)N[C@@H](C)C(=O)N[C@H](C(=O)N[C@@H](Cc1ccc(O)cc1)C(=O)O)[C@@H](C)O)[C@@H](C)CC)[C@@H](C)O` [Peptide 308], with 23 ± 5 nM; and `CC[C@H](C)[C@H](NC(=O)[C@@H](NC(=O)[C@H](CC(C)C)NC(=O)[C@H](C)NC(=O)[C@@H](NC(=O)[C@H](CC(C)C)NC(=O)[C@H](C)NC(=O)[C@H](CC(C)C)NC(=O)[C@H](CC(C)C)NC(=O)[C@H](CCSC)NC(=O)[C@H](CCC(N)=O)NC(=O)[C@H](Cc1ccc(O)cc1)NC(=O)[C@H](CC(N)=O)NC(=O)[C@H](CCCNC(=N)N)NC(=O)[C@H](CO)NC(=O)[C@@H](NC(=O)[C@H](CC(C)C)NC(=O)[C@@H](N)CCCNC(=N)N)C(C)C)C(C)C)C(C)C)C(=O)N[C@H](C(=O)N[C@@H](CC(C)C)C(=O)N[C@H](C(=O)O)[C@@H](C)O)[C@@H](C)O` [Peptide 310], with 660 ± 25 nM.
Consider `CC[C@H](C)[C@H](NC(=O)CNC(=O)[C@H](CO)NC(=O)[C@H](CCC(N)=O)NC(=O)[C@H](CC(N)=O)NC(=O)[C@@H](NC(=O)[C@H](Cc1ccccc1)NC(=O)[C@@H]1CCCN1C(=O)[C@H](CCC(=O)O)NC(=O)[C@H](Cc1ccccc1)NC(=O)[C@@H](NC(=O)[C@H](CC(C)C)NC(=O)[C@@H](N)CS)C(C)C)C(C)C)C(=O)N[C@@H](CCC(=O)O)C(=O)N[C@H](C(=O)N[C@@H](CC(C)C)C(=O)N[C@@H](CC(C)C)C(=O)N[C@@H](CC(C)C)C(=O)N[C@@H](Cc1ccc(O)cc1)C(=O)N[C@@H](Cc1ccccc1)C(=O)N[C@@H](CCCCN)C(=O)O)[C@@H](C)CC` [Peptide 311], for which the IC50 was determined as 3400 nM.
The molecule `CC[C@H](C)[C@H](NC(=O)[C@H](CCSC)NC(=O)[C@H](Cc1ccc(O)cc1)NC(=O)[C@H](Cc1ccccc1)NC(=O)[C@H](CCC(N)=O)NC(=O)[C@@H](NC(=O)CNC(=O)[C@@H](NC(=O)CN)[C@@H](C)O)C(C)C)C(=O)N[C@H](C(=O)N[C@H](C(=O)NCC(=O)N[C@H](C(=O)N[C@H](C(=O)N[C@H](C(=O)N[C@@H](CC(C)C)C(=O)N[C@@H](C)C(=O)N[C@@H](C)C(=O)N[C@@H](CC(C)C)C(=O)N[C@@H](Cc1ccccc1)C(=O)N[C@@H](CCSC)C(=O)O)[C@@H](C)CC)[C@@H](C)CC)C(C)C)[C@@H](C)CC)C(C)C` [Peptide 312] had an IC50 of 620 ± 110 nM.
`CC[C@H](C)[C@H](NC(=O)[C@H](Cc1ccccc1)NC(=O)[C@H](CCC(=O)O)NC(=O)[C@H](CC(N)=O)NC(=O)[C@@H](N)[C@@H](C)O)C(=O)N[C@@H](CO)C(=O)N[C@@H](Cc1ccccc1)C(=O)N[C@@H](CC(C)C)C(=O)N[C@@H](CC(C)C)C(=O)N[C@@H](CC(C)C)C(=O)N[C@H](C(=O)N[C@@H](CO)C(=O)N[C@H](C(=O)N1CCC[C@H]1C(=O)N[C@H](C(=O)N[C@@H](Cc1ccc(O)cc1)C(=O)N[C@@H](CC(N)=O)C(=O)N[C@H](C(=O)N[C@@H](CC(C)C)C(=O)N[C@@H](Cc1ccccc1)C(=O)N[C@@H](Cc1c[nH]c2ccccc12)C(=O)O)[C@@H](C)CC)[C@@H](C)CC)[C@@H](C)CC)[C@@H](C)O` [Peptide 313]: inhibition was half-maximal at 510 ± 110 nM (IC50).
The molecule `CC[C@H](C)[C@H](NC(=O)[C@H](C)NC(=O)[C@H](CC(C)C)NC(=O)[C@H](CO)NC(=O)[C@H](CC(N)=O)NC(=O)[C@H](CC(C)C)NC(=O)[C@H](Cc1ccccc1)NC(=O)[C@H](CCCNC(=N)N)NC(=O)[C@H](CCSC)NC(=O)[C@H](CC(=O)O)NC(=O)[C@H](Cc1ccccc1)NC(=O)[C@H](CCC(N)=O)NC(=O)CNC(=O)[C@@H](NC(=O)[C@@H](N)Cc1ccc(O)cc1)[C@@H](C)CC)C(=O)N[C@@H](Cc1c[nH]cn1)C(=O)N[C@@H](CCC(=O)O)C(=O)N[C@@H](CCCCN)C(=O)N[C@@H](Cc1ccccc1)C(=O)N[C@@H](CC(=O)O)C(=O)N[C@@H](C)C(=O)O` [Peptide 314] displayed an IC50 of 4 ± 1 nM.
Consider `CC[C@H](C)[C@H](NC(=O)[C@@H]1CCCN1C(=O)[C@H](CO)NC(=O)CNC(=O)[C@H](CO)NC(=O)[C@H](CC(C)C)NC(=O)[C@H](CC(C)C)NC(=O)[C@H](CC(C)C)NC(=O)[C@H](Cc1ccccc1)NC(=O)[C@@H]1CCCN1C(=O)[C@@H](NC(=O)[C@H](CCCCN)NC(=O)[C@H](CC(N)=O)NC(=O)[C@H](CCCCN)NC(=O)[C@@H](N)CC(N)=O)[C@@H](C)CC)C(=O)N[C@H](C(=O)N[C@@H](CC(N)=O)C(=O)N[C@H](C(=O)N1CCC[C@H]1C(=O)N[C@@H](CC(N)=O)C(=O)N[C@H](C(=O)O)[C@@H](C)O)[C@@H](C)O)[C@@H](C)O` [Peptide 316], for which the IC50 worked out at 45 ± 19 nM.
Turning to `CC[C@H](C)[C@H](NC(=O)[C@H](CCSC)NC(=O)[C@@H](N)Cc1ccc(O)cc1)C(=O)N[C@H](C(=O)N[C@H](C(=O)NCC(=O)N[C@H](C(=O)N[C@H](C(=O)N[C@H](C(=O)N[C@@H](CC(C)C)C(=O)N[C@@H](C)C(=O)N[C@@H](C)C(=O)N[C@@H](CC(C)C)C(=O)N[C@@H](Cc1ccccc1)C(=O)N[C@@H](CCSC)C(=O)N[C@@H](Cc1ccc(O)cc1)C(=O)N[C@@H](Cc1ccc(O)cc1)C(=O)N[C@@H](C)C(=O)N[C@@H](CCCCN)C(=O)N[C@@H](CCCNC(=N)N)C(=O)N[C@@H](CCSC)C(=O)O)[C@@H](C)CC)[C@@H](C)CC)C(C)C)[C@@H](C)CC)C(C)C` [Peptide 317], the IC50 was 675 ± 185 nM.
The value for `CC[C@H](C)[C@H](NC(=O)[C@H](CO)NC(=O)[C@H](CCSC)NC(=O)[C@H](CO)NC(=O)[C@H](Cc1ccc(O)cc1)NC(=O)[C@@H](NC(=O)[C@@H](NC(=O)[C@H](CO)NC(=O)[C@@H]1CCCN1C(=O)[C@H](Cc1ccccc1)NC(=O)[C@H](CC(C)C)NC(=O)[C@H](CC(C)C)NC(=O)[C@@H](NC(=O)[C@@H](NC(=O)[C@@H](NC(=O)[C@H](CC(C)C)NC(=O)[C@H](CO)NC(=O)[C@H](CCCNC(=N)N)NC(=O)[C@@H](N)CCSC)[C@@H](C)CC)[C@@H](C)CC)C(C)C)[C@@H](C)CC)[C@@H](C)CC)C(=O)N[C@@H](CCCNC(=N)N)C(=O)N[C@@H](CCCNC(=N)N)C(=O)O` [Peptide 319] was 1890 nM.
